The values below come from PubChem BioAssay (NCI).

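A five-concentration, 48-hour dose response in 96-well plates underlies each endpoint, interpolated linearly between surrounding concentrations. The concentration for 50% growth inhibition is given as GI50. TGI denotes the concentration required for complete inhibition of growth.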

What all share (assay): inhibition of tumour cell growth, NCI panel, 48 h
For assay [1], the system named is MCF7 breast.
Assay [2] has as its system HT29 colon.
Assay [3] has as its system RXF 393 renal.
Assay [4] deals with MDA-MB-231 breast.
Assay [5] relates to SK-MEL-28 melanoma.
The test system of assay [6] is SF-295 CNS.
Assay [7] concerns OVCAR-5 ovarian.
For assay [8], the system named is HCT-15 colon.
The subject of assay [9] is HOP-92 NSCLC.
The subject of assay [10] is HOP-62 NSCLC.

As for `Cn1cccc1-c1cc(-c2ccc(Br)cc2)nc(N)c1C#N`, the GI50 in [1] was more than 100 µM; in [2] it was more than 100 µM; in assay [3] it was 30.3 µM; in assay [4], 69.9 µM; in [5] it was more than 100 µM; in assay [6], more than 100 µM. Moreover, the GI50 in [7] was more than 100 µM; in [8] it was more than 100 µM; in [9] it was 47.8 µM. Moreover, the TGI in [1], in [2], in assay [3], in [4], in [5] and in assay [6] was more than 100 µM throughout. The TGI in [7], in assay [8] and in assay [9] was more than 100 µM each time.
Turning to `COc1cc2c(/C=C3\C(=O)Nc4ccc(Br)cc43)c(Cl)n(C)c2cc1C`, the GI50 in assay [1] was 0.322 µM; in assay [2] it was 1.98 µM; in assay [3] it was 1.71 µM; in [4], 2.63 µM; in assay [10] it was 0.813 µM; in [5], 0.418 µM. For the same compound, the GI50 is 0.327 µM in assay [6], 4.11 µM in assay [7], 1.92 µM in assay [8] and 2.37 µM in assay [9]. Also, the TGI in [1] was determined as 6.53 µM; in assay [2] it was 6.83 µM; in assay [3] it was 7.33 µM; in assay [4], 10.5 µM; in [10], 4.47 µM; in assay [5], 3.49 µM. Besides, the TGI in assay [6] is 1.16 µM; in [7], 15.9 µM; in [8], 8.06 µM; in [9], 17.9 µM.
`Cc1ccc(Cl)cc1Nc1nc(C(F)(F)F)ccc1C(=O)Oc1ccc(Cl)cc1`: the GI50 in assay [1] is 16.8 µM; in [2], 13.3 µM; in assay [3] it was 3.97 µM; in assay [4] it was 4.53 µM; in assay [10], 8.88 µM; in [5], 21.9 µM. The GI50 in assay [6] was 7.08 µM; in assay [7], 10.5 µM; in assay [8], 10.9 µM; in assay [9] it was 1.92 µM. Moreover, the TGI in [1] is more than 100 µM; in assay [2], more than 100 µM; in assay [3], 16 µM; in assay [4], 20.6 µM; in assay [10], 23.1 µM; in assay [5] it was more than 100 µM. In addition, the TGI in [6] is 21.7 µM; in [7] it was 27.5 µM; in assay [8] it was 30.8 µM; in [9] it was 14.8 µM.
As for `Cc1cc(S(N)(=O)=O)c(S/C(=N\NS(=O)(=O)c2ccc(Cl)cc2)c2ccc(Cl)cc2)cc1Cl`, the GI50 in assay [1], in assay [3], in assay [4], in assay [10], in [5] and in assay [6] was more than 100 µM each time. For the same compound, the GI50 in assay [7], in [8] and in assay [9] was more than 100 µM throughout. Moreover, the TGI in [1], in [3], in [4], in assay [10], in assay [5] and in [6] was more than 100 µM each time. For the same compound, the TGI in assay [7], in assay [8] and in assay [9] was more than 100 µM throughout.
With `O=C(O)/C(Cl)=C(/Cl)C(=O)Nc1cccc(Cl)c1`, the TGI was 62.8 µM in assay [1]; 42.3 µM in assay [2]; 30 µM in assay [3]; 28.1 µM in [4]; more than 76.3 µM in assay [10]; 32.8 µM in assay [5]. Also, the TGI in [6] was more than 62.2 µM; in assay [7], 39.7 µM; in assay [8], 34.9 µM; in [9], 30.8 µM.
`COc1ccc(Cc2ccccc2C(=O)O)c2ccccc12`: the TGI was more than 100 µM in assay [1]; more than 100 µM in assay [2]; more than 100 µM in assay [3]; more than 100 µM in assay [4]; more than 100 µM in [10]; 64.2 µM in assay [5]. Moreover, the TGI in assay [6] worked out at 93 µM; in assay [7] it was 59.6 µM; in assay [8], 92.4 µM; in assay [9], 61.9 µM.
Consider `COc1ccccc1Nc1nc(-c2cc3cccc(C(F)(F)F)c3oc2=O)cs1`, for which the GI50 in assay [1] was 0.0574 µM; in assay [2] it was 0.126 µM; in assay [3] it was 0.0657 µM; in [4] it was 0.516 µM; in assay [10], 0.134 µM; in assay [5] it was 1.64 µM. The GI50 in assay [6] was 0.0353 µM; in [7], 0.572 µM; in [8], 0.151 µM; in [9], 0.112 µM. Also, the TGI is more than 100 µM in assay [1]; 11.9 µM in [2]; 30.7 µM in assay [3]; more than 55.9 µM in assay [4]; 29.7 µM in assay [10]; more than 100 µM in assay [5]. Also, the TGI is 24.2 µM in assay [6], more than 100 µM in assay [7], more than 100 µM in assay [8] and 33.1 µM in assay [9].
With `O=C(NC(=S)NS(=O)(=O)c1ccc(N2N=C3c4ccccc4CC3C2c2cccs2)cc1)c1ccccc1` (centres undefined), the GI50 was more than 100 µM in [1]; 46 µM in [2]; 54 µM in assay [3]; 22.5 µM in [4]; 84 µM in assay [5]; 25.4 µM in assay [6]. Also, the GI50 in [7] is 18.7 µM; in [8] it was 30.2 µM; in [9], 53.1 µM. Further, the TGI in [1] is more than 100 µM; in [2], more than 100 µM; in assay [3], more than 100 µM; in assay [4], 90.1 µM; in [5], more than 100 µM; in [6] it was 78.6 µM. The TGI in assay [7] was 71.7 µM; in [8] it was more than 100 µM; in [9], more than 100 µM.
For `N#Cc1c2ccccc2c2nnc3cc(Cl)c(Cl)cc3n12`, the GI50 in assay [1] was 27.5 µM; in assay [2], more than 100 µM; in assay [3], 30 µM; in assay [4], 24.2 µM; in [10] it was 31.2 µM; in assay [6], 93.7 µM. The GI50 in [7] was more than 100 µM; in assay [8], 33 µM; in assay [9], 42 µM. Besides, the TGI in assay [1] is 90.3 µM; in [2] it was more than 100 µM; in assay [3], more than 100 µM; in assay [4], 74.6 µM; in assay [10], more than 100 µM; in assay [6] it was more than 100 µM. The TGI in assay [7], in [8] and in [9] was more than 100 µM in each case.
Regarding `CC1=C(C)C(=O)C(C(C)C2=C(C)C(=O)C(C)=C(C)C2=O)=C(C)C1=O`, the GI50 is 29 µM in assay [1]; 31.7 µM in assay [3]; 13.8 µM in assay [4]; more than 100 µM in assay [10]; 15.1 µM in [6]; 47 µM in assay [7]. Also, the GI50 in assay [8] was 15.2 µM; in assay [9], 13.8 µM. Moreover, the TGI in assay [1] is more than 100 µM; in assay [3], 82.7 µM; in assay [4], 30.4 µM; in assay [10], more than 100 µM; in assay [6], more than 100 µM; in assay [7], more than 100 µM. For the same compound, the figures for the TGI in assay [8] and in assay [9] were more than 100 µM and 39.7 µM, respectively.
`COc1ccc(-n2c(N)c(C(=O)NCCN3CCOCC3)c3nc4ccccc4nc32)cc1OC`: the GI50 in assay [1] is 4.13 µM; in [2] it was 5.8 µM; in assay [3], 34.1 µM; in assay [4] it was 32.4 µM; in assay [5] it was 32.1 µM; in [7] it was more than 100 µM. In addition, the GI50 in [8] is 15 µM; in [9] it was 20.3 µM. Also, the TGI in assay [1], in assay [2], in assay [3], in [4], in assay [5] and in [7] was more than 100 µM in each case. Moreover, the TGI in assay [8] and in [9] was more than 100 µM throughout.
As to `O=c1c2ccccc2nc(-c2ccc(Cl)cc2)n1O`, the TGI was 63.4 µM in [1]; more than 100 µM in assay [2]; more than 100 µM in assay [3]; more than 100 µM in assay [4]; 91.2 µM in assay [10]; 94.1 µM in assay [6]. Further, the results for the TGI in assay [7], in assay [8] and in assay [9] were more than 100 µM, more than 100 µM and 88.8 µM, respectively.
As for `N#C/C(=C/N1CCN(C(=O)c2ccco2)C1=S)C(N)=O`, the GI50 in assay [1] is 1.71 µM; in [2], 24.1 µM; in assay [3], 19.2 µM; in assay [4], 13.1 µM; in assay [10], 25.6 µM; in [5], 15.8 µM. In addition, the results for the GI50 in assay [6], in assay [8] and in assay [9] were 32.1 µM, 3.82 µM and 25.5 µM, respectively. The TGI was 21 µM in assay [1]; more than 100 µM in assay [2]; 82.2 µM in assay [3]; 37 µM in assay [4]; 66.9 µM in assay [10]; more than 100 µM in assay [5]. The TGI in assay [6], in [8] and in assay [9] was more than 100 µM in each case.
Consider `C=C1C(=O)O[C@H]2[C@H]1CC/C(Cn1cc(CCC)nn1)=C\CC[C@@]1(C)O[C@@H]21`, for which the GI50 in assay [1] is 3.35 µM; in assay [2], 5.5 µM; in [3], 4.8 µM; in assay [4] it was 4.22 µM; in assay [10], 14.1 µM; in [6], 18.5 µM. Moreover, the GI50 in assay [7] was 14.1 µM; in [8], 2.9 µM; in assay [9], 2.95 µM. Also, the TGI in [1] was 15.4 µM; in assay [2] it was 18.2 µM; in assay [3] it was 16.5 µM; in [4] it was 16.3 µM; in [10], 27.8 µM; in assay [6] it was 39.2 µM. Moreover, the TGI in [7] was determined as 29.5 µM; in assay [8] it was 12.3 µM; in assay [9] it was 7.13 µM.
For `NS(=O)(=O)c1ccc(-n2nc(-c3ccc(Cl)cc3)cc2C2=CC(=O)C=CC2=O)cc1`, the GI50 in assay [1] was 21.1 µM; in assay [3], 21.9 µM; in assay [4], 13.7 µM; in [6] it was 25.1 µM; in assay [7], 19.5 µM; in [8], 16.1 µM. Further, the GI50 in assay [9] was 28 µM. Besides, the TGI was determined as 69.9 µM in [1]; 46.7 µM in assay [3]; 32 µM in [4]; 63.2 µM in [6]; 46.1 µM in assay [7]; 32.2 µM in assay [8]. This compound showed a TGI in assay [9] of more than 100 µM.
`CO/N=C1/c2cc(OC)ccc2-c2c(NOC)nc3ccccc3c21`: the GI50 was 27.1 µM in [1]; 42 µM in [2]; 12.6 µM in assay [4]; 24.6 µM in assay [10]; 85.2 µM in assay [5]; 32.8 µM in assay [6]. Further, the GI50 in [7] is 22 µM; in assay [8], 32.6 µM; in [9] it was 16 µM. In addition, the TGI in assay [1] was more than 100 µM; in assay [2], more than 100 µM; in [4], 40.1 µM; in assay [10], 39.4 µM; in assay [5], more than 100 µM; in assay [6], more than 100 µM. The TGI in assay [7] is 71.6 µM; in [8], more than 100 µM; in assay [9], 46.2 µM.
Take `Cc1ccc(/C=C2\CCOC2=O)cc1`: the GI50 in assay [1], in assay [2], in assay [3], in [4], in assay [10] and in [5] was more than 100 µM in each case. The GI50 in [7], in assay [8] and in assay [9] was more than 100 µM each time. The TGI in assay [1], in assay [2], in assay [3], in assay [4], in [10] and in assay [5] was more than 100 µM in each case. Further, the TGI in [7], in assay [8] and in [9] was more than 100 µM each time.
